Data on 9 molecules can be found in DBAASP.

Each structure is given as a SMILES string. In brackets after ≈: the same amount, converted by molar mass.

Test systems include Bacillus megaterium; Micrococcus luteus; Aureobasidium pullulans; Staphylococcus aureus; Escherichia coli W3110; Enterococcus faecalis; Vibrio cholerae; Escherichia coli MG1655.
What all share (test): ≥ marks a high value that may be exact or a test limit, other limits are often not marked, values filed in µg/mL are converted to µM
Assay [1] concerns Pseudomonas aeruginosa ATCC 27853.
The test system of assay [2] is Bacillus subtilis ATCC 23857.
Assay [3] has as its system Candida albicans ATCC 10231.
In assay [4] the test system is Staphylococcus aureus ATCC 9144.
Assay [5] has as its system Escherichia coli ATCC 25922.
Assay [6] concerns Corynebacterium glutamicum ATCC 13032.
Assay [7] has as its system Streptococcus mutans UA159.
The test system of assay [8] is Streptococcus sanguinis NY101.
For assay [9], the system named is Streptococcus sobrinus ATCC 33478.
In assay [10] the test system is Pseudomonas aeruginosa PAK.
In assay [11] the test system is Bacillus subtilis MTCC 14416.
For assay [12], the system named is Staphylococcus aureus MTCC 9542.
Assay [13] concerns Staphylococcus aureus ATCC 43300.
Assay [14] concerns Enterococcus faecalis ATCC 29212.
For assay [15], the system named is Streptococcus gordonii Challis DL1.
For assay [16], the system named is Streptococcus mitis ATCC 903.

Consider `CC(C)C[C@H](NC(=O)[C@H](CC(C)C)NC(=O)[C@H](CC(C)C)NC(=O)[C@@H]1CCCN1C(=O)[C@H](CCCN=C(N)N)NC(=O)[C@H](CCCN=C(N)N)NC(=O)CN)C(=O)N[C@@H](CCCN=C(N)N)C(=O)N[C@@H](C)C(=O)N[C@@H](CCCN=C(N)N)C(N)=O` [GRRPLLLRAR], for which the MIC was over 207 µM in assay [1]; 6.46 µM (≈ 7.79 µg/mL) in the assay with Bacillus megaterium; at least 207 µM in assay [2]; 104 µM (≈ 125 µg/mL) in assay [3]; at least 51.8 µM against Micrococcus luteus; at least 207 µM in assay [4]. Further, the MIC was at least 207 µM with Aureobasidium pullulans, over 207 µM in assay [5] and 25.9 µM (≈ 31.3 µg/mL) in [6].
Take `CC(C)[C@H](NC(=O)[C@H](CCCCN)NC(=O)[C@H](C)NC(=O)[C@@H](NC(=O)[C@@H](NC(=O)[C@H](C)NC(=O)[C@H](CCCN=C(N)N)NC(=O)[C@H](Cc1c[nH]c2ccccc12)NC(=O)[C@H](Cc1c[nH]c2ccccc12)NC(=O)CN)[C@@H](C)O)C(C)C)C(=O)N[C@@H](CCCN=C(N)N)C(=O)N[C@@H](CCCCN)C(N)=O` [GWWRATVAKVRK]: the MIC in assay [1] was 25 µM (≈ 36.4 µg/mL); in assay [3], 25 µM (≈ 36.4 µg/mL); in assay [4], at least 100 µM; in the assay on Aureobasidium pullulans, 25 µM (≈ 36.4 µg/mL); in [5] it was 6.3 µM (≈ 9.18 µg/mL); in [6], 0.8 µM (≈ 1.17 µg/mL).
Take `C[C@H](NC(=O)[C@H](CCCN=C(N)N)NC(=O)[C@H](Cc1c[nH]c2ccccc12)NC(=O)[C@H](Cc1c[nH]c2ccccc12)NC(=O)[C@H](Cc1c[nH]c2ccccc12)NC(=O)[C@H](Cc1c[nH]c2ccccc12)NC(=O)[C@H](CCCN=C(N)N)NC(=O)[C@H](CCCN=C(N)N)NC(=O)CN)C(=O)N[C@@H](CCCN=C(N)N)C(N)=O` [GRRWWWWRAR]: the MIC is 20.7 µM (≈ 31.3 µg/mL) in assay [1]; 2.57 µM (≈ 3.9 µg/mL) in the assay with Bacillus megaterium; 5.15 µM (≈ 7.8 µg/mL) in assay [2]; 41.2 µM (≈ 62.5 µg/mL) in assay [3]; 10.3 µM (≈ 15.6 µg/mL) against Micrococcus luteus; at least 41.2 µM in assay [4]. Besides, the MIC in the assay on Aureobasidium pullulans was at least 41.2 µM; in [5] it was 10.3 µM (≈ 15.6 µg/mL); in assay [6] it was 5.15 µM (≈ 7.8 µg/mL).
With `CC[C@H](C)[C@H](NC(=O)[C@H](Cc1ccccc1)NC(=O)[C@H](Cc1cnc[nH]1)NC(=O)[C@H](CCCCN)NC(=O)[C@@H](NC(=O)[C@H](Cc1ccccc1)NC(=O)[C@@H]1CCCN1C(=O)[C@H](CO)NC(=O)CNC(=O)[C@H](CO)NC(=O)[C@@H]1CCCN1C(=O)[C@H](Cc1ccccc1)NC(=O)[C@H](Cc1cnc[nH]1)NC(=O)[C@H](CC(C)C)NC(=O)[C@H](Cc1cnc[nH]1)NC(=O)[C@H](Cc1ccccc1)NC(=O)[C@H](Cc1cnc[nH]1)NC(=O)[C@@H](N)Cc1ccccc1)[C@@H](C)CC)C(=O)N[C@@H](Cc1cnc[nH]1)C(=O)N[C@@H](CCCN=C(N)N)C(=O)N[C@@H](Cc1ccccc1)C(N)=O` [FHFHLHFPSGSPFIKHFIHRF], the MIC was over 190 µM in the assay with Staphylococcus aureus; at least 47.4 µM against Escherichia coli W3110; 23.7 µM (≈ 62.5 µg/mL) in assay [7]; 23.7 µM (≈ 62.5 µg/mL) in assay [8]; at least 94.8 µM against Enterococcus faecalis; 23.7 µM (≈ 62.5 µg/mL) in assay [9]. Besides, the MIC in assay [10] is at least 190 µM.
On to `CC[C@H](C)[C@@H]1NC(=O)[C@H](CCCCN)NC(=O)[C@@H](NC(=O)[C@H](CC(C)C)NC(=O)[C@@H](NC(=O)[C@H](CCC(N)=O)NC(=O)[C@@H]2CCCN2C(=O)[C@H](CC(C)C)NC(=O)[C@H](Cc2ccccc2)NC(=O)[C@H](CC(N)=O)NC(=O)[C@H](C)NC(=O)[C@H](C)NC(=O)[C@H](CC(C)C)NC(=O)CNC(=O)[C@H](C)NC(=O)[C@@H](NC(=O)[C@@H](N)CCCCN)[C@@H](C)CC)[C@@H](C)CC)CSSC[C@@H](C(N)=O)NC(=O)[C@H](CCCCN)NC(=O)[C@H](CCCN=C(N)N)NC(=O)[C@H](C)NC1=O` [KIAGLAANFLPQILCKIARKC], for which the MIC is over 44 µM in assay [1]; at least 44 µM in assay [11]; 5.5 µM (≈ 12.5 µg/mL) in assay [12]; over 44 µM in assay [13]; 11 µM (≈ 25 µg/mL) against Vibrio cholerae; 22 µM (≈ 49.9 µg/mL) in assay [14]. The same molecule had an MIC in the assay on Escherichia coli MG1655 of 11 µM (≈ 25 µg/mL).
Turning to `CC[C@H](C)[C@H](N)C(=O)N[C@@H](C)C(=O)NCC(=O)N[C@@H](CC(C)C)C(=O)N[C@@H](C)C(=O)N[C@@H](C)C(=O)N[C@@H](CC(N)=O)C(=O)N[C@@H](Cc1ccccc1)C(=O)N[C@@H](CC(C)C)C(=O)N1CCC[C@H]1C(=O)N[C@@H](CCC(N)=O)C(=O)N[C@H](C(=O)N[C@@H](CC(C)C)C(=O)N[C@H]1CSSC[C@@H](C(N)=O)NC(=O)[C@H](CCCCN)NC(=O)[C@H](CCCN=C(N)N)NC(=O)[C@H](C)NC(=O)[C@H]([C@@H](C)CC)NC(=O)[C@H](CCCCN)NC1=O)[C@@H](C)CC` [IAGLAANFLPQILCKIARKC], the MIC was over 46.6 µM in assay [1]; at least 46.6 µM in [11]; 11.7 µM (≈ 25 µg/mL) in [12]; over 46.6 µM in assay [13]; 11.7 µM (≈ 25 µg/mL) in the assay on Vibrio cholerae; 23.3 µM (≈ 49.9 µg/mL) against Escherichia coli MG1655.
Regarding `CC[C@H](C)[C@H](NC(=O)[C@H](Cc1cnc[nH]1)NC(=O)[C@H](CCCCN)NC(=O)[C@@H](NC(=O)[C@@H](N)CC(C)C)[C@@H](C)CC)C(=O)N[C@@H](CC(C)C)C(=O)N[C@@H](Cc1cnc[nH]1)C(=O)N[C@@H](CCCN=C(N)N)C(=O)N[C@@H](CC(C)C)C(=O)NCC(=O)NCC(=O)NCC(=O)N[C@@H](Cc1ccccc1)C(=O)N[C@@H](Cc1cnc[nH]1)C(=O)N[C@@H](Cc1ccccc1)C(=O)N[C@@H](Cc1cnc[nH]1)C(=O)N[C@@H](CC(C)C)C(=O)N[C@@H](Cc1cnc[nH]1)C(=O)N[C@@H](Cc1ccccc1)C(N)=O` [LIKHILHRLGGGFHFHLHF], the minimum inhibitory concentration (MIC) against Staphylococcus aureus is 27.4 µM (≈ 62.5 µg/mL); against Escherichia coli W3110, at least 110 µM; in assay [7], 7.02 µM (≈ 16 µg/mL); in assay [8], 27.4 µM (≈ 62.5 µg/mL); against Enterococcus faecalis, 14 µM (≈ 32 µg/mL); in [9] it was 14 µM (≈ 32 µg/mL). The molecule also showed an MIC in assay [10] of at least 110 µM.
On to `NC(=O)CC[C@H](NC(=O)[C@H](Cc1c[nH]c2ccccc12)NC(=O)[C@@H](N)Cc1c[nH]c2ccccc12)C(=O)N[C@@H](CC(=O)O)C(=O)N[C@@H](Cc1c[nH]c2ccccc12)C(=O)N[C@@H](Cc1c[nH]c2ccccc12)C(=O)N[C@@H](CC(N)=O)C(=O)N[C@@H](CCC(=O)O)C(=O)N[C@@H](Cc1c[nH]c2ccccc12)C(N)=O` [WWQDWWNEW], for which the MIC in the assay on Staphylococcus aureus is over 348 µM; against Escherichia coli W3110, at least 348 µM; in assay [15], at least 348 µM; in assay [7], at least 348 µM; in assay [8], at least 348 µM; in assay [16], at least 348 µM. The MIC (against Enterococcus faecalis; in [9]; in assay [10]) was at least 348 µM in each case.
For `CC[C@H](C)[C@@H]1NC(=O)[C@H](CCCCN)NC(=O)[C@@H](NC(=O)[C@H](CC(C)C)NC(=O)[C@@H](NC(=O)[C@H](CCC(N)=O)NC(=O)[C@@H]2CCCN2C(=O)[C@H](CC(C)C)NC(=O)[C@H](Cc2ccccc2)NC(=O)[C@H](CC(N)=O)NC(=O)[C@H](C)NC(=O)[C@H](C)NC(=O)[C@H](CC(C)C)NC(=O)CNC(=O)[C@H](C)NC(=O)[C@@H](NC(=O)[C@@H](N)Cc2cnc[nH]2)[C@@H](C)CC)[C@@H](C)CC)CSSC[C@@H](C(N)=O)NC(=O)[C@H](CCCCN)NC(=O)[C@H](CCCN=C(N)N)NC(=O)[C@H](C)NC1=O` [HIAGLAANFLPQILCKIARKC], the minimal inhibitory concentration (MIC) in [1] was over 43.8 µM; in assay [11], 21.9 µM (≈ 49.9 µg/mL); in assay [12], at least 43.8 µM; in assay [13] it was 43.8 µM (≈ 99.9 µg/mL); in the assay with Vibrio cholerae, 11 µM (≈ 25 µg/mL); against Escherichia coli MG1655, 21.9 µM (≈ 49.9 µg/mL).

Usually MIC stands for the lowest concentration found to suppress growth.
